In patent publication US20220380371A1, “MLL1 INHIBITORS AND ANTI-CANCER AGENTS” (NOVARTIS AG, priority 2019, published 2022) one finds IC50 data, which are given here for ten molecules.

The test system of one assay is H3K4me3 in MV4-11 cells. Put plainly: MV4-11 H3K4me3 Cellular ELISA Assay. In kind it is cell-based. Conditions: Homo sapiens, MV4-11, 48 h. In a few lines: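 MV4-11 cells were treated for 48 h with 12-point 1:3 compound dilutions (from 10 mM stock), then histones were acid-extracted with 0.5M HCl and neutralized. H3K4me3 and total H3 were measured by HRP chemiluminescent ELISA, and inhibition versus DMSO after H3 normalization was curve-fitted for IC50.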

Assay [1] has as its target wild type MLL1 five-member complex (MLL1-5C) (Homo sapiens, UniProt Q03164). Put plainly: MLL1 Flashplate Assay. The settings on record: read-out: MLL1 flash plate. Type of assay: biochemical.
Another assay has as its system MV4-11 cells. Put plainly: MV4-11 6-Day Cell Growth CTG (CellTiter-Glo) Assay. In kind it is cell-based. Conditions: Homo sapiens, MV4-11, 144 h, MV4-11 cell growth CellTiter-Glo, 6 days. In a few lines:
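MV4-11 AML cells (RPMI 1640, 10% FBS) seeded at 300 cells/well and exposed for 6 days at 37 °C to a 12-point, 1:3 compound series starting at 50 μM final. Viable cells read by CellTiter-Glo luminescence; percent inhibition versus DMSO-only wells fitted to dose-response curves for IC50.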

Assay [2] addresses wild type MLL1 four-member complex (MLL1-4C) (Homo sapiens, UniProt Q03164). Put plainly: MLL1 LC-MS Assay. Type of assay: biochemical. Conditions: read-out: MLL1 LCMS. The method in brief:
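Compound pre-incubated 20 min with MLL1-4C and SAM, then H3[1-21]-biotin (H3K4me0) substrate added; final 30 nM enzyme, 2.5 μM SAM, 10 μM peptide in Tris pH 8.0 with MgCl2, DTT, Tween 20, BSA. After 120 min at rt, TFA-quenched SAH quantified by LC-MS/MS with d4-SAH; IC50 from dose-response fit.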

pIC50: −log10 of the molar value.

Consider `Nc1ncnc2c1ncn2Cc1c(N2CC[C@](N)(C(=O)NC3CC3)C2)ccc(OC(F)(F)F)c1Br` [Example 147], for which the pIC50 with H3K4me3 in MV4-11 cells was more than 5.72; in assay [1], more than 7.22; in the assay with MV4-11 cells, more than 5.70; in assay [2], more than 7.30.
Regarding `NC(=O)[C@@]1(N)CCN(c2cc(Cl)cc(Br)c2Cn2cnc3c(N)ncnc32)C1` [Example 148], the pIC50 in the assay on H3K4me3 in MV4-11 cells is more than 5.72; in assay [1] it was more than 7.22; in the assay on MV4-11 cells it was more than 5.70; in assay [2], more than 7.30.
For `CCc1c(Cl)ccc(N2CC[C@](N)(C(=O)NCCS(=O)(=O)CC)C2)c1Cn1cnc2c(N)ncnc21` [Example 149] the same measures were more than 5.72, more than 7.22, more than 5.70 and more than 7.30.
With `Nc1ncnc2c1ncn2Cc1c(-c2cccc3c2CCCC3)cc(Cl)cc1N1CC[C@](N)(C(=O)NC2CC2)C1` [Example 150], the pIC50 in the assay on H3K4me3 in MV4-11 cells was 5.52 to 5.72; in assay [1], more than 7.22; with MV4-11 cells, more than 5.70; in assay [2], more than 7.30.
On to `CCc1cc(Cl)cc(N2CC[C@](N)(C(=O)N3CCS(=O)(=O)CC3)C2)c1Cn1cnc2c(N)ncnc21` [Example 151], for which the pIC50 is more than 5.72 in the assay with H3K4me3 in MV4-11 cells, more than 7.22 in assay [1], more than 5.70 in the assay on MV4-11 cells and less than 7.00 in assay [2].
Consider `Nc1ncnc2c1ncn2Cc1c(Cl)c(Cl)cc(F)c1N1CCC(N)(C(=O)NC2CC2)C1` (stereo not shown) [Example 152], for which the pIC50 with H3K4me3 in MV4-11 cells was more than 5.72; in assay [1], more than 7.22; in the assay with MV4-11 cells it was more than 5.70; in assay [2] it was less than 7.00.
In the case of `CCc1c(Cl)ccc(N2CC[C@](N)(C(=O)NC3CCS(=O)(=O)CC3)C2)c1Cn1cnc2c(N)ncnc21` [Example 153], the pIC50 in the assay on H3K4me3 in MV4-11 cells was more than 5.72; in assay [1] it was 7.00 to 7.22; in the assay with MV4-11 cells, more than 5.70; in assay [2], more than 7.30.
On to `CCc1ccc(Cl)c(N2CC[C@](N)(C(=O)NC3CC3)C2)c1Cn1cnc2c(N)ncnc21` [Example 154], for which the pIC50 in the assay on H3K4me3 in MV4-11 cells was more than 5.72; in assay [1], less than 7.00; in the assay on MV4-11 cells it was more than 5.70; in assay [2], more than 7.30.
On to `CCc1c(Cl)ccc(N2CC[C@](N)(C(=O)N3CCS(=O)(=O)CC3)C2)c1Cn1cnc2c(N)ncnc21` [Example 155], for which the pIC50 in the assay on H3K4me3 in MV4-11 cells is more than 5.72; in assay [1], less than 7.00; with MV4-11 cells, more than 5.70; in assay [2], less than 7.00.
`CCOC(=O)[C@@]1(N)CCN(c2cc(Cl)cc(Br)c2Cn2cnc3c(N)ncnc32)C1` [Example 170]: the pIC50 is more than 5.72 with H3K4me3 in MV4-11 cells, more than 7.22 in assay [1], more than 5.70 in the assay on MV4-11 cells and 7.00 to 7.30 in assay [2].
